The supplement of paper PMC10307832

Columns and labels:
Test in all cases: relative viability (nuclei count vs DMSO), 5 days (fraction); higher = more cells survive
A-427 = test system: A-427
Method in brief: (§1)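 Medians of duplicate plates are given as relative viability. That measure is the nuclei count in treated wells divided by the count in vehicle wells. Counts were taken on 4× images of lung cancer cell lines in 1536-well plates, 5 days after pin-tool dosing the day after seeding with one drug alone or a fixed anchor-drug dose plus five library-drug doses (not always all listed) in √10 steps.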

CAL-12T = test system: CAL-12T
Method in brief: as §1

COR-L 105 = test system: COR-L 105
Method in brief: as §1

EMC-BAC-2 = test system: EMC-BAC-2
Method in brief: as §1

HARA = test system: HARA
Method in brief: as §1

HCC-366 = test system: HCC-366
Method in brief: as §1

HCC-827 = test system: HCC-827
Method in brief: as §1

HOP-62 = test system: HOP-62
Method in brief: as §1

LCLC-103H = test system: LCLC-103H
Method in brief: as §1

NCI-H1355 = test system: NCI-H1355
Method in brief: as §1

NCI-H1395 = test system: NCI-H1395
Method in brief: as §1

NCI-H1437 = test system: NCI-H1437
Method in brief: as §1

NCI-H1755 = test system: NCI-H1755
Method in brief: as §1

NCI-H1792 = test system: NCI-H1792
Method in brief: as §1

NCI-H1915 = test system: NCI-H1915
Method in brief: as §1

NCI-H1975 = test system: NCI-H1975
Method in brief: as §1

NCI-H2009 = test system: NCI-H2009
Method in brief: as §1

NCI-H2228 = test system: NCI-H2228
Method in brief: as §1

NCI-H23 = test system: NCI-H23
Method in brief: as §1

NCI-H460 = test system: NCI-H460
Method in brief: as §1

NCI-H522 = test system: NCI-H522
Method in brief: as §1

NCI-H727 = test system: NCI-H727
Method in brief: as §1

SK-LU-1 = test system: SK-LU-1
Method in brief: as §1

SW 1573 = test system: SW 1573
Method in brief: as §1

COc1cc(N2CCC(C(N)=O)CC2)ccc1Nc1nc(N)c(Cl)c(Nc2ccccc2S(=O)(=O)C(C)C)n1 [HG-5-88-01] + COc1cccc2cc(-c3nc([C@H]4CC[C@H](C(=O)O)CC4)n4ncnc(N)c34)[nH]c12 [OSI-027] (partner 0.5 µM)
relative viability (A-427; first compound 0.04 µM): 0.441 | relative viability (A-427; first compound 0.1265 µM): 0.533 | relative viability (A-427; first compound 0.4 µM): 0.524 | relative viability (A-427; first compound 1.265 µM): 0.416 | relative viability (A-427; first compound 4 µM): 0.283 | relative viability (CAL-12T; first compound 0.04 µM): 0.491 | relative viability (CAL-12T; first compound 0.1265 µM): 0.672 | relative viability (CAL-12T; first compound 0.4 µM): 0.612 | relative viability (CAL-12T; first compound 1.265 µM): 0.208 | relative viability (CAL-12T; first compound 4 µM): 0.173 | relative viability (COR-L 105; first compound 0.04 µM): 0.616 | relative viability (COR-L 105; first compound 0.1265 µM): 0.776 | relative viability (COR-L 105; first compound 0.4 µM): 0.531 | relative viability (COR-L 105; first compound 1.265 µM): 0.371 | relative viability (COR-L 105; first compound 4 µM): 0.316 | relative viability (EMC-BAC-2; first compound 0.04 µM): 0.361 | relative viability (EMC-BAC-2; first compound 0.1265 µM): 0.371 | relative viability (EMC-BAC-2; first compound 0.4 µM): 0.326 | relative viability (EMC-BAC-2; first compound 1.265 µM): 0.307 | relative viability (EMC-BAC-2; first compound 4 µM): 0.251 | relative viability (HARA; first compound 0.04 µM): 0.378 | relative viability (HARA; first compound 0.1265 µM): 0.578 | relative viability (HARA; first compound 0.4 µM): 0.437 | relative viability (HARA; first compound 1.265 µM): 0.121 | relative viability (HARA; first compound 4 µM): 0.144 | relative viability (HCC-366; first compound 0.04 µM): 1.02 | relative viability (HCC-366; first compound 0.1265 µM): 0.941 | relative viability (HCC-366; first compound 0.4 µM): 1.02 | relative viability (HCC-366; first compound 1.265 µM): 0.577 | relative viability (HCC-366; first compound 4 µM): 0.6 | relative viability (HCC-827; first compound 0.04 µM): 0.819 | relative viability (HCC-827; first compound 0.1265 µM): 0.89 | relative viability (HCC-827; first compound 0.4 µM): 0.8 | relative viability (HCC-827; first compound 1.265 µM): 0.564 | relative viability (HCC-827; first compound 4 µM): 0.406 | relative viability (HOP-62; first compound 0.04 µM): 0.726 | relative viability (HOP-62; first compound 0.1265 µM): 0.949 | relative viability (HOP-62; first compound 0.4 µM): 0.828 | relative viability (HOP-62; first compound 1.265 µM): 0.856 | relative viability (HOP-62; first compound 4 µM): 0.737 | relative viability (LCLC-103H; first compound 0.04 µM): 0.416 | relative viability (LCLC-103H; first compound 0.1265 µM): 0.435 | relative viability (LCLC-103H; first compound 0.4 µM): 0.381 | relative viability (LCLC-103H; first compound 1.265 µM): 0.362 | relative viability (LCLC-103H; first compound 4 µM): 0.405 | relative viability (NCI-H1355; first compound 0.04 µM): 0.341 | relative viability (NCI-H1355; first compound 0.1265 µM): 0.419 | relative viability (NCI-H1355; first compound 0.4 µM): 0.3 | relative viability (NCI-H1355; first compound 1.265 µM): 0.253 | relative viability (NCI-H1355; first compound 4 µM): 0.237 | relative viability (NCI-H1395; first compound 0.04 µM): 0.583 | relative viability (NCI-H1395; first compound 0.1265 µM): 0.66 | relative viability (NCI-H1395; first compound 0.4 µM): 0.638 | relative viability (NCI-H1395; first compound 1.265 µM): 0.646 | relative viability (NCI-H1395; first compound 4 µM): 0.631 | relative viability (NCI-H1437; first compound 0.04 µM): 0.836 | relative viability (NCI-H1437; first compound 0.1265 µM): 0.92 | relative viability (NCI-H1437; first compound 0.4 µM): 0.887 | relative viability (NCI-H1437; first compound 1.265 µM): 0.735 | relative viability (NCI-H1437; first compound 4 µM): 0.83 | relative viability (NCI-H1755; first compound 0.04 µM): 0.722 | relative viability (NCI-H1755; first compound 0.1265 µM): 0.731 | relative viability (NCI-H1755; first compound 0.4 µM): 0.677 | relative viability (NCI-H1755; first compound 1.265 µM): 0.686 | relative viability (NCI-H1755; first compound 4 µM): 0.434 | relative viability (NCI-H1792; first compound 0.04 µM): 0.809 | relative viability (NCI-H1792; first compound 0.1265 µM): 0.823 | relative viability (NCI-H1792; first compound 0.4 µM): 0.794 | relative viability (NCI-H1792; first compound 4 µM): 0.574 | relative viability (NCI-H1915; first compound 0.04 µM): 0.63 | relative viability (NCI-H1915; first compound 0.1265 µM): 0.625 | relative viability (NCI-H1915; first compound 0.4 µM): 0.69 | relative viability (NCI-H1915; first compound 1.265 µM): 0.697 | relative viability (NCI-H1915; first compound 4 µM): 0.527 | relative viability (NCI-H1975; first compound 0.04 µM): 0.711 | relative viability (NCI-H1975; first compound 0.1265 µM): 0.803 | relative viability (NCI-H1975; first compound 0.4 µM): 0.631 | relative viability (NCI-H1975; first compound 1.265 µM): 0.461 | relative viability (NCI-H1975; first compound 4 µM): 0.19 | relative viability (NCI-H2009; first compound 0.04 µM): 0.565 | relative viability (NCI-H2009; first compound 0.1265 µM): 0.585 | relative viability (NCI-H2009; first compound 0.4 µM): 0.423 | relative viability (NCI-H2009; first compound 1.265 µM): 0.444 | relative viability (NCI-H2009; first compound 4 µM): 0.353 | relative viability (NCI-H2228; first compound 0.04 µM): 0.241 | relative viability (NCI-H2228; first compound 0.1265 µM): 0.148 | relative viability (NCI-H2228; first compound 0.4 µM): 0.181 | relative viability (NCI-H2228; first compound 1.265 µM): 0.169 | relative viability (NCI-H2228; first compound 4 µM): 0.172 | relative viability (NCI-H23; first compound 0.04 µM): 0.511 | relative viability (NCI-H23; first compound 0.1265 µM): 0.605 | relative viability (NCI-H23; first compound 0.4 µM): 0.615 | relative viability (NCI-H23; first compound 1.265 µM): 0.311 | relative viability (NCI-H23; first compound 4 µM): 0.238 | relative viability (NCI-H460; first compound 0.04 µM): 0.604 | relative viability (NCI-H460; first compound 0.1265 µM): 0.655 | relative viability (NCI-H460; first compound 0.4 µM): 0.543 | relative viability (NCI-H460; first compound 1.265 µM): 0.344 | relative viability (NCI-H460; first compound 4 µM): 0.287 | relative viability (NCI-H522; first compound 0.04 µM): 0.641 | relative viability (NCI-H522; first compound 0.1265 µM): 0.634 | relative viability (NCI-H522; first compound 0.4 µM): 0.66 | relative viability (NCI-H522; first compound 1.265 µM): 0.579 | relative viability (NCI-H522; first compound 4 µM): 0.61 | relative viability (NCI-H727; first compound 0.04 µM): 0.423 | relative viability (NCI-H727; first compound 0.1265 µM): 0.619 | relative viability (NCI-H727; first compound 0.4 µM): 0.493 | relative viability (NCI-H727; first compound 1.265 µM): 0.424 | relative viability (NCI-H727; first compound 4 µM): 0.355 | relative viability (SK-LU-1; first compound 0.04 µM): 0.292 | relative viability (SK-LU-1; first compound 0.1265 µM): 0.34 | relative viability (SK-LU-1; first compound 0.4 µM): 0.278 | relative viability (SK-LU-1; first compound 1.265 µM): 0.235 | relative viability (SK-LU-1; first compound 4 µM): 0.174 | relative viability (SW 1573; first compound 0.04 µM): 0.624 | relative viability (SW 1573; first compound 0.1265 µM): 0.609 | relative viability (SW 1573; first compound 0.4 µM): 0.359 | relative viability (SW 1573; first compound 1.265 µM): 0.306 | relative viability (SW 1573; first compound 4 µM): 0.375
